Each block holds one compound with its values, some of them ahead of it. Calls of active or inactive are those of the source. The calls are words filed in the database; no cut-off is given here.
Key:
[1] = molecular target: von Hippel-Lindau disease tumor suppressor/Phosphatidylinositol 4,5-bisphosphate 3-kinase catalytic subunit delta isoform (Homo sapiens) (UniProt O00329+P40337); test: PROTAC activity at VHL/p110delta in human SU-DHL-6 cells assessed as induction of p110delta degradation at 100 nM measured after 12 hrs in presence of (2S,4R)-1-((S)-2-acetamido-3,3-dimethylbutanoyl)-4-hydroxy-N-(4-(4-methylthiazol-5-yl)benzyl)pyrrolidine-2-carboxamide by Western blot analysis; assay type: cell-based
von Hippel-Lindau disease tumor suppressor/Phosphatidylinositol 4,5-bisphosphate 3-kinase catalytic subunit delta isoform (Homo sapiens), sequence (P40337 whole entry, looked up, one chain of several, canonical isoform): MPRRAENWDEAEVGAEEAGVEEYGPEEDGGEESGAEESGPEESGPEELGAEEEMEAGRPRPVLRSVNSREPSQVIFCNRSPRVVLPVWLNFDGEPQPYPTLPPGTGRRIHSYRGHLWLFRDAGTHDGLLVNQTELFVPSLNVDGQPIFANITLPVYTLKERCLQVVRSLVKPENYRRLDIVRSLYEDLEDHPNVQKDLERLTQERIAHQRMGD

[2] = molecular target: T1, Phosphatidylinositol 4,5-bisphosphate 3-kinase catalytic subunit delta isoform (Homo sapiens) (UniProt O00329); test: Induction of p110delta degradation in human SU-DHL-6 cells at 1000 nM incubated for 24 hrs by Western blot analysis; assay type: cell-based
T1 sequence (whole entry): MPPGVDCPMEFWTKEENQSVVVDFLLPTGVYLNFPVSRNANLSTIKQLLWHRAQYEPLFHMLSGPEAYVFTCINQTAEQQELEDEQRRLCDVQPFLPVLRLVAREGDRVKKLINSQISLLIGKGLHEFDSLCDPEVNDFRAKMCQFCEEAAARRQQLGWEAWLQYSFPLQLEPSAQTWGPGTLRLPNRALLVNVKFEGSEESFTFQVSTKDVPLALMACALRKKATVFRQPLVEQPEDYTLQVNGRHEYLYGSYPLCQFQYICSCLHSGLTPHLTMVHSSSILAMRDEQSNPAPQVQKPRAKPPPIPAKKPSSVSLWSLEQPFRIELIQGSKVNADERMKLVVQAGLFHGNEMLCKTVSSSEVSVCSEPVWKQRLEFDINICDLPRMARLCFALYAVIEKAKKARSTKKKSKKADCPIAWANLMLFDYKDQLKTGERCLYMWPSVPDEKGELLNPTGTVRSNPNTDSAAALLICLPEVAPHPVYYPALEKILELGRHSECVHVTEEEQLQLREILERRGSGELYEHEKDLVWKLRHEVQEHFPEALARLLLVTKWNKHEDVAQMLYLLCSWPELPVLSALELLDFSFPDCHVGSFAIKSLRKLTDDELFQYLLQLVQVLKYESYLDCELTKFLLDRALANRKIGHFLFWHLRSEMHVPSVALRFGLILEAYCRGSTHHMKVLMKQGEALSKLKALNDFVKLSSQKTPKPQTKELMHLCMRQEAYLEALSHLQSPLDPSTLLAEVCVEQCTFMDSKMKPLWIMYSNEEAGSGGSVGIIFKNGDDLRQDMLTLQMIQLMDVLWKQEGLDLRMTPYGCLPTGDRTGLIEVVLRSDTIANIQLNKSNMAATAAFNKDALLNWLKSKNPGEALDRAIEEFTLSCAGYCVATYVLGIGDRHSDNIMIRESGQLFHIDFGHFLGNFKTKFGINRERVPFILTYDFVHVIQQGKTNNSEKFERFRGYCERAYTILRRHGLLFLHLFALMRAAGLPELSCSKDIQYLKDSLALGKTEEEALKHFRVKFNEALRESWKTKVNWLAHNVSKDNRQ

SU-DHL-6 [3] = test: Inhibition of AKT phosphorylation in human SU-DHL-6 cells at 0.1 to 1 uM incubated for 24 hrs by Western blot analysis; assay type: cell-based; conditions: dose 0.1-1 µM
SU-DHL-6 [4] = test: Induction of apoptosis in human SU-DHL-6 cells assessed as late apoptotic cells at 0.01 uM incubated for 24 hrs by Annexin V-FITC/PI staining based flow cytometric analysis (reference value: 4.75 %); assay type: functional
SU-DHL-6 [5] = test: Induction of apoptosis in human SU-DHL-6 cells assessed as necrotic cells at 0.01 uM incubated for 24 hrs by Annexin V-FITC/PI staining based flow cytometric analysis (reference value: 0.39 %); assay type: functional
SU-DHL-6 [6] = test: Inhibition of AKT phosphorylation in human SU-DHL-6 cells at 1 to 10000 nM incubated for 24 hrs by Western blot analysis; assay type: cell-based; conditions: dose 1-10000 nM
SU-DHL-6 [7] = test: Induction of apoptosis in human SU-DHL-6 cells assessed as viable cells at 0.01 uM incubated for 24 hrs by Annexin V-FITC/PI staining based flow cytometric analysis (reference value: 92.54 %); assay type: functional; conditions: read-out: Activity
Pfeiffer = test: Antiproliferative activity against human Pfeiffer cells assessed as cell growth inhibition incubated for 72 hrs by MTT assay; assay type: functional
SU-DHL-6 [8] = test: Induction of autophagy in human SU-DHL-6 cells assessed as increase in LC3-II to LC3-I ratio at 1 to 100 nM incubated for 24 hrs by Western blot analysis; assay type: functional, cell-based; conditions: dose 1-100 nM
SU-DHL-6 [9] = test: Induction of apoptosis in human SU-DHL-6 cells assessed as early apoptotic cells at 0.01 uM incubated for 24 hrs by Annexin V-FITC/PI staining based flow cytometric analysis (reference value: 2.32 %); assay type: functional
SU-DHL-6 [10] = test: Induction of apoptosis in human SU-DHL-6 cells assessed as early apoptotic cells at 0.1 uM incubated for 24 hrs by Annexin V-FITC/PI staining based flow cytometric analysis (reference value: 2.32 %); assay type: functional
SU-DHL-6 [11] = test: Induction of apoptosis in human SU-DHL-6 cells assessed as viable cells at 0.1 uM incubated for 24 hrs by Annexin V-FITC/PI staining based flow cytometric analysis (reference value: 92.54 %); assay type: functional; conditions: read-out: Activity
SU-DHL-6 [12] = test: Induction of apoptosis in human SU-DHL-6 cells assessed as late apoptotic cells at 0.1 uM incubated for 24 hrs by Annexin V-FITC/PI staining based flow cytometric analysis (reference value: 4.75 %); assay type: functional
SU-DHL-6 [13] = test: Induction of apoptosis in human SU-DHL-6 cells assessed as late apoptotic cells at 1 uM incubated for 24 hrs by Annexin V-FITC/PI staining based flow cytometric analysis (reference value: 4.75 %); assay type: functional
SU-DHL-6 [14] = test: Cell cycle arrest in human SU-DHL-6 cells assessed as increase in G1 phase cells at 0.1 uM incubated for 24 hrs by PI staining based flow cytometric analysis; assay type: functional
SU-DHL-6 [15] = test: Induction of apoptosis in human SU-DHL-6 cells assessed as early apoptotic cells at 1 uM incubated for 24 hrs by Annexin V-FITC/PI staining based flow cytometric analysis (reference value: 2.32 %); assay type: functional
SU-DHL-6 [16] = test: Cell cycle arrest in human SU-DHL-6 cells assessed as increase in G1 phase cells incubated for 24 hrs by PI staining based flow cytometric analysis; assay type: functional; conditions: dose 0.01-1 µM
SU-DHL-6 [17] = test: Induction of apoptosis in human SU-DHL-6 cells assessed as necrotic cells at 0.1 uM incubated for 24 hrs by Annexin V-FITC/PI staining based flow cytometric analysis (reference value: 0.39 %); assay type: functional
SU-DHL-6 [18] = test: Induction of apoptosis in human SU-DHL-6 cells assessed as viable cells at 1 uM incubated for 24 hrs by Annexin V-FITC/PI staining based flow cytometric analysis (reference value: 92.54 %); assay type: functional; conditions: read-out: Activity
SU-DHL-6 [19] = test: Induction of apoptosis in human SU-DHL-6 cells assessed as necrotic cells at 1 uM incubated for 24 hrs by Annexin V-FITC/PI staining based flow cytometric analysis (reference value: 0.39 %); assay type: functional
SU-DHL-6 [20] = test: Antiproliferative activity against human SU-DHL-6 cells assessed as cell growth inhibition incubated for 72 hrs by MTT assay; assay type: functional
[21] = molecular target: Protein cereblon/Phosphatidylinositol 4,5-bisphosphate 3-kinase catalytic subunit gamma isoform (Homo sapiens, UniProt P48736+Q96SW2); test: PROTAC activity at CRBN/p110gamma (unknown origin) in Acute myeloid leukemic cell; assay type: cell-based
Protein cereblon/Phosphatidylinositol 4,5-bisphosphate 3-kinase catalytic subunit gamma isoform, sequence (P48736 whole entry, canonical isoform): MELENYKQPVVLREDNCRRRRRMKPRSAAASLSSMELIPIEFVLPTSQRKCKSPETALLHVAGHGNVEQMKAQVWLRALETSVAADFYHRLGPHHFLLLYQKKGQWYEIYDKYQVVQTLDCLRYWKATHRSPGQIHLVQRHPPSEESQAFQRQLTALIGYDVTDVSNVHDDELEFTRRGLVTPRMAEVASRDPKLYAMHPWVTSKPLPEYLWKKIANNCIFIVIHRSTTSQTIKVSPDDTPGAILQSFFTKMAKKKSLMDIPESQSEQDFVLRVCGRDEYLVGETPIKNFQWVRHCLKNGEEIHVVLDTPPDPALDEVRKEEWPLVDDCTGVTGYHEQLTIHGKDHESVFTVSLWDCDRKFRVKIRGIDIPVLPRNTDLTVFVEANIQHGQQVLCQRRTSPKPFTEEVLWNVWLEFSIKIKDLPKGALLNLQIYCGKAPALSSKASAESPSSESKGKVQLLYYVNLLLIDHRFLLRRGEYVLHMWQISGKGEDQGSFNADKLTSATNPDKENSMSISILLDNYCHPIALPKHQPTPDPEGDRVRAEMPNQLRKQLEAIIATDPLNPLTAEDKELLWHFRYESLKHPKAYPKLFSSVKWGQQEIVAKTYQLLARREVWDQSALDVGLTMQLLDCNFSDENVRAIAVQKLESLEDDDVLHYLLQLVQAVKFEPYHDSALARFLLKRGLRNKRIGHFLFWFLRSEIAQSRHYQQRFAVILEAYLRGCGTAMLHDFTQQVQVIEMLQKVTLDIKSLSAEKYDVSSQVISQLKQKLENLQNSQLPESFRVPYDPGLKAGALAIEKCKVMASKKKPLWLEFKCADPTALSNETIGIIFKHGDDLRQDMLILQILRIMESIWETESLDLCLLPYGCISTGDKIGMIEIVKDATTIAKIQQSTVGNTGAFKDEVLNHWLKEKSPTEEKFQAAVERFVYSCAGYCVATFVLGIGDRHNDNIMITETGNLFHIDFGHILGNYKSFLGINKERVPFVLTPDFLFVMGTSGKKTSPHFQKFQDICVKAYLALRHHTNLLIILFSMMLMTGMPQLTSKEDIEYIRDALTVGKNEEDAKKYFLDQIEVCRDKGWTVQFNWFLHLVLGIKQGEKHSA
Protein cereblon/Phosphatidylinositol 4,5-bisphosphate 3-kinase catalytic subunit gamma isoform, sequence (Q96SW2 whole entry, canonical isoform): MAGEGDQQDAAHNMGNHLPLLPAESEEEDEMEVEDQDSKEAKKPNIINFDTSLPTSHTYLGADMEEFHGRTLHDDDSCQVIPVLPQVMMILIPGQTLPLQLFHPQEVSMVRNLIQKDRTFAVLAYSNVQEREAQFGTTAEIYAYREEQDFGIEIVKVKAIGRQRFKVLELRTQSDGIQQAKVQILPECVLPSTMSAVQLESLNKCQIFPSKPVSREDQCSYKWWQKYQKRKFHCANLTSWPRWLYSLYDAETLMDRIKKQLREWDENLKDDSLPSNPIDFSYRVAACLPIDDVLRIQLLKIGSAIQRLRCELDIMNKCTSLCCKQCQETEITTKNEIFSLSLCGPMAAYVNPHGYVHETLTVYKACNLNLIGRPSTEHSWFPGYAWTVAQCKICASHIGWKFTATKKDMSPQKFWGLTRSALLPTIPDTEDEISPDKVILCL

[22] = molecular target: Protein cereblon/Phosphatidylinositol 4,5-bisphosphate 3-kinase catalytic subunit alpha isoform (Homo sapiens, UniProt P42336+Q96SW2); test: PROTAC activity at CRBN/p110alpha in human MDA-MB-231 cells assessed as induction of p110alpha degradation; assay type: cell-based
Protein cereblon/Phosphatidylinositol 4,5-bisphosphate 3-kinase catalytic subunit alpha isoform, sequence (P42336 whole entry, canonical isoform): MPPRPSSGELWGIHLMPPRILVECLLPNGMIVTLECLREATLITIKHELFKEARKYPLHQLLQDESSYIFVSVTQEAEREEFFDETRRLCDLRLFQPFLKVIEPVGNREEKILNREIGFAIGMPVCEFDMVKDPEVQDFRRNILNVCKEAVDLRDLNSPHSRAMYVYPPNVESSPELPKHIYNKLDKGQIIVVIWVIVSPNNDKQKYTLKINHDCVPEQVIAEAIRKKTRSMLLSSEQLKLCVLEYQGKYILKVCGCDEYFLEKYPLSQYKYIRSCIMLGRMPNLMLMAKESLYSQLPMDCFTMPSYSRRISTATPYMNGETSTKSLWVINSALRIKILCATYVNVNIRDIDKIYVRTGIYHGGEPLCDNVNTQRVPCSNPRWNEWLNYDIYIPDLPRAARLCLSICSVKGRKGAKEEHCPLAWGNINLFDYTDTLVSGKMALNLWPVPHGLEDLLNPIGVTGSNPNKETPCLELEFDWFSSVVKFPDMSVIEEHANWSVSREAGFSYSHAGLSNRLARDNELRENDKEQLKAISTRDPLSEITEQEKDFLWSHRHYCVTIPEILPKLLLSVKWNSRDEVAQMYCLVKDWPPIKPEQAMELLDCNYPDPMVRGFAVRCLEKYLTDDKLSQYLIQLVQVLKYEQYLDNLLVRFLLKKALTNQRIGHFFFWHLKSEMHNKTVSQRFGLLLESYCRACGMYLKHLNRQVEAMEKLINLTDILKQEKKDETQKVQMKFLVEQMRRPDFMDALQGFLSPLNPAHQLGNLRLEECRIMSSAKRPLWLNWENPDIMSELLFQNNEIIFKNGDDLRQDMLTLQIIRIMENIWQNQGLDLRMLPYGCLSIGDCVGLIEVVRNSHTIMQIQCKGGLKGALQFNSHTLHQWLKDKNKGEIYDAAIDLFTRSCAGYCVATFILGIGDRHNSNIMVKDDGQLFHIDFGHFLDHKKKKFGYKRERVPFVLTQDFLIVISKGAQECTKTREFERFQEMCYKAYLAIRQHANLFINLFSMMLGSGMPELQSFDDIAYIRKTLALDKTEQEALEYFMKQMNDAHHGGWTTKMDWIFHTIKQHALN
Protein cereblon/Phosphatidylinositol 4,5-bisphosphate 3-kinase catalytic subunit alpha isoform, sequence (Q96SW2 whole entry, canonical isoform): as the sequence (Q96SW2 whole entry, canonical isoform) above

MDA-MB-231 = test: Antiproliferative activity against human MDA-MB-231 cells; assay type: functional, cell-based
SU-DHL-6 [23] = test: Antitumor activity against human SU-DHL-6 cells xenografted in male nude mouse model assessed as tumor growth inhibition at 2 mg/kg, ip administered for 21 days relative to control; assay type: functional; conditions: SU-DHL-6, 504 h, time 21 day, read-out: TGI
SU-DHL-6 [24] = test: Induction of apoptosis in human SU-DHL-6 cells assessed as early apoptotic cells at 10 uM incubated for 24 hrs by Annexin V-FITC/PI staining based flow cytometric analysis (reference value: 2.32 %); assay type: functional
SU-DHL-6 [25] = test: Induction of apoptosis in human SU-DHL-6 cells assessed as viable cells at 10 uM incubated for 24 hrs by Annexin V-FITC/PI staining based flow cytometric analysis (reference value: 92.54 %); assay type: functional; conditions: read-out: Activity
[26] = molecular target: T1, Phosphatidylinositol 4,5-bisphosphate 3-kinase catalytic subunit delta isoform (Homo sapiens); conditions: dose 100.0 nM, time 90.0 min
SU-DHL-6 [27] = test: Induction of apoptosis in human SU-DHL-6 cells assessed as late apoptotic cells at 10 uM incubated for 24 hrs by Annexin V-FITC/PI staining based flow cytometric analysis (reference value: 4.75 %); assay type: functional
SU-DHL-6 [28] = test: Induction of apoptosis in human SU-DHL-6 cells assessed as necrotic cells at 10 uM incubated for 24 hrs by Annexin V-FITC/PI staining based flow cytometric analysis (reference value: 0.39 %); assay type: functional

SMILES: COc1ncc(-c2ccc3ncnc(N[C@H]4CCN(C(=O)C5CCOCC5)C4)c3n2)cc1C(=O)Oc1ccccc1
- Activity [1]: Not active; Formation Of Ternary Complex Plays A Pivotal Factor In Degradation
- Activity [2]: < 20%

SMILES: CC[C@H](Nc1ncnc2[nH]cnc12)c1nc2cccc(F)c2c(=O)n1-c1ccccc1 [IDELALISIB]
- inhibition in vivo at 2 mg/kg (SU-DHL-6 [23]): 36.3%
- Activity (SU-DHL-6 [24]): 8.2%
- GI50 (Pfeiffer): 8550 nM
- viability at 10 µM (SU-DHL-6 [25]): 80.1%
- Activity (SU-DHL-6 [13]): 4.89%
- inhibition [26]: 81%
- Activity (SU-DHL-6 [15]): 3.25%
- Activity (SU-DHL-6 [27]): 11.55%
- viability at 1 µM (SU-DHL-6 [18]): 91.7%
- Activity (SU-DHL-6 [19]): 0.18%
- GI50 (SU-DHL-6 [20]): 250 nM
- Activity (SU-DHL-6 [28]): 0.13%

More lines, main results first:

- GI50 (SU-DHL-6 [20]): 200 nM
SMILES: COc1ncc(-c2ccc3ncnc(N[C@H]4CCN(C(=O)C5CCN(CCCCCCCCCC(=O)N[C@H](C(=O)N6C[C@H](O)C[C@H]6C(=O)NCc6ccc(-c7scnc7C)cc6)C(C)(C)C)CC5)C4)c3n2)cc1C(=O)Oc1ccccc1
- inhibition (SU-DHL-6 [3]): Active
- Activity (SU-DHL-6 [4]): 4.79%
- Activity (SU-DHL-6 [5]): 0.11%
- inhibition (SU-DHL-6 [6]): Active
- viability at 0.01 µM (SU-DHL-6 [7]): 92.4%
- GI50 (Pfeiffer): 370 nM
- Activity (SU-DHL-6 [8]): Active
- Activity (SU-DHL-6 [9]): 2.73%
- Activity (SU-DHL-6 [10]): 2.29%
- viability at 0.1 µM (SU-DHL-6 [11]): 90.1%
- Activity (SU-DHL-6 [12]): 7.29%
- Activity (SU-DHL-6 [13]): 72.97%
- Activity (SU-DHL-6 [14]): Active; More Potent Than 10 Um Idelalisib
- Activity (SU-DHL-6 [15]): 1.16%
- Activity (SU-DHL-6 [16]): Dose-dependent-effect
- Activity (SU-DHL-6 [17]): 0.31%
- viability at 1 µM (SU-DHL-6 [18]): 20.4%
- Activity (SU-DHL-6 [19]): 5.5%

- DC50 [21]: > 100 nM
SMILES: Cc1cc(-c2sc(NC(=O)CCCC(=O)NCCCCCCCC(=O)Nc3cccc4c3C(=O)N(C3CCC(=O)NC3=O)C4=O)nc2C)cc2c1C(=O)N([C@H](C)C1CC1)C2 (stereo partly specified)

- DC50 [22]: 5 nM
- IC50 (MDA-MB-231): 86.8 nM
SMILES: COc1c(OCCOCCOCCCCCc2cn(CCCCCNc3cccc4c3C(=O)N(C3CCC(=O)NC3=O)C4=O)nn2)ccc2c1N=C(NC(=O)c1cnc(N)nc1)N1CCN=C21 (stereo unspecified)

From ChEMBL document CHEMBL6134931, “Lysine-Targeted Covalent Strategy Leading to the Discovery of Novel Potent PROTAC-Based PI3Kδ Degraders” (J Med Chem, 2025)
